Experimental data as given in PubChem BioAssay AID264 (DTP/NCI, 2004).
Where “and” joins values, the source holds several entries; their conditions need not be identical. Identical values can stand only once. Records with an inconclusive call do not appear.

Test system: nude mice, LX-1 lung xenograft intrarenal, tumor weight T/C
Assay: NCI In Vivo Anticancer Drug Screen. Data for tumor model Human Lung LX-1 Xenograft (intrarenal inoculation) in NU/NU Swiss (nude) mice
Details: endpoint: mean tumor weight change, higher = larger tumour
Procedure, shortened: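 Tumor-bearing mice receive test compound or vehicle; tumor size is then measured in each group. The treated value is divided by the vehicle value to give T/C.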

[1] = dose: 300.0 mg/kg/injection, schedule: Q04DX003 (sc), vehicle: saline with Tween-80
[2] = dose: 600.0 mg/kg/injection, schedule: Q04DX003 (sc), vehicle: saline with Tween-80
[3] = dose: 1200.0 mg/kg/injection, schedule: Q04DX003 (sc), vehicle: saline with Tween-80
[4] = dose: 2400.0 mg/kg/injection, schedule: Q04DX003 (sc), vehicle: saline with Tween-80
[5] = dose: 18.75 mg/kg/injection, schedule: Q04DX003 (sc), vehicle: saline with Tween-80
[6] = dose: 37.5 mg/kg/injection, schedule: Q04DX003 (sc), vehicle: saline with Tween-80
[7] = dose: 75.0 mg/kg/injection, schedule: Q04DX003 (sc), vehicle: saline with Tween-80
[8] = dose: 150.0 mg/kg/injection, schedule: Q04DX003 (sc), vehicle: saline with Tween-80

In the case of `CCOC(=O)NC1=C(N2CC2)C(=O)C(NC(=O)OCC)=C(N2CC2)C1=O`, the T/C (dose: 0.78 mg/kg/injection, schedule: Q01DX010 (sc), vehicle: saline) is reported as 67 % of control, the T/C (dose: 1.56 mg/kg/injection, schedule: Q01DX010 (sc), vehicle: saline) is reported as 74 % of control and the T/C (dose: 1.56 mg/kg/injection, schedule: Q01DX010 (sc), vehicle: suspension in saline) is reported as 56 % of control. The T/C (dose: 3.12 mg/kg/injection, schedule: Q04DX003 (sc), vehicle: suspension in saline) was 77 % of control, the T/C (dose: 3.13 mg/kg/injection, schedule: Q01DX010 (sc), vehicle: saline) was 81 % of control and the T/C (dose: 3.13 mg/kg/injection, schedule: Q01DX010 (sc), vehicle: suspension in saline) was 89 % of control. The T/C (dose: 3.13 mg/kg/injection, schedule: Q04DX003 (ip), vehicle: saline) was 64 % of control, the T/C (dose: 6.25 mg/kg/injection, schedule: Q01DX010 (sc), vehicle: saline) was 35 % of control and the T/C (dose: 6.25 mg/kg/injection, schedule: Q04DX003 (ip), vehicle: saline) was 96 % of control. The T/C (dose: 6.25 mg/kg/injection, schedule: Q04DX003 (sc), vehicle: saline) was 75 % of control, the T/C (dose: 6.25 mg/kg/injection, schedule: Q04DX003 (sc), vehicle: suspension in saline) was 65 % of control and the T/C (dose: 12.5 mg/kg/injection, schedule: Q04DX003 (ip), vehicle: saline) was 34 % of control. For the same compound, the T/C (dose: 12.5 mg/kg/injection, schedule: Q04DX003 (sc), vehicle: saline) was 71 % of control and the T/C (dose: 25.0 mg/kg/injection, schedule: Q04DX003 (ip), vehicle: saline) was 9 % of control.

`Cc1c2cc[n+](C)cc2c(C)c2c1[nH]c1ccc(O)cc12` was tested, and the T/C (dose: 1.5 mg/kg/injection, schedule: Q04DX003 (sc), vehicle: water) was 151 % of control.

For `CC(=O)Nc1ccc(S(=O)(=O)CO)cc1`, the T/C [1] was 90 % of control, the T/C [2] was 66 % of control and the T/C [3] was 96 % of control. For the same compound, the T/C [4] was 67 % of control.

In the case of `CC(C)(C)N1CC1CNC(=O)C(=O)NCC1CN1C(C)(C)C` (stereo not drawn), the T/C (dose: 6.25 mg/kg/injection, schedule: Q04DX003 (sc), vehicle: saline with Tween-80) is reported as 87 % of control, the T/C (dose: 12.5 mg/kg/injection, schedule: Q04DX003 (sc), vehicle: saline with Tween-80) is reported as 76 % of control and the T/C (dose: 25.0 mg/kg/injection, schedule: Q04DX003 (sc), vehicle: saline with Tween-80) is reported as 70 % of control.

For `ClCCCN1CCN(CCCCl)CC1`, the T/C (dose: 150.0 mg/kg/injection, schedule: Q04DX003 (sc), vehicle: distilled water + alcohol) was 90 % of control.

With `NC(=O)/C=C/c1c[nH]c2nccnc12` the T/C (dose: 50.0 mg/kg/injection, schedule: Q04DX003 (sc), vehicle: water) was 86 % of control.

For `C=C[Si]12OCCN(CCO1)CCO2`, the T/C (dose: 300.0 mg/kg/injection, schedule: Q04DX003 (sc), vehicle: Klucel (hydroxypropylcellulose) (HPC)) was 250 % of control, the T/C (dose: 600.0 mg/kg/injection, schedule: Q04DX003 (sc), vehicle: Klucel (hydroxypropylcellulose) (HPC)) was 212 % of control and the T/C (dose: 1200.0 mg/kg/injection, schedule: Q04DX003 (sc), vehicle: Klucel (hydroxypropylcellulose) (HPC)) was 163 % of control.

For `O=S(=O)(O)O.[NH-]C1CCCCC1[NH-].[Pt+2]` (stereo not drawn), the T/C (dose: 0.63 mg/kg/injection, schedule: Q01DX010 (sc), vehicle: dextrose) was 85 % of control, the T/C (dose: 1.25 mg/kg/injection, schedule: Q01DX010 (sc), vehicle: dextrose) was 90 % of control and the T/C (dose: 2.5 mg/kg/injection, schedule: Q01DX010 (sc), vehicle: dextrose) was 82 % of control.

With `COC(=O)C(F)C(Br)C(=O)OC` (stereo not drawn) the T/C [5] was 91 % of control, the T/C [6] was 111 % of control and the T/C [7] was 90 % of control.

In the case of `CC(=O)OC(C)C1C2=C(C(=O)CC1(C)O)C(=O)c1c(ccc(-c3ccc4c(c3O)C(=O)C3=C(C4=O)C(C(C)OC(C)=O)C(C)(O)CC3=O)c1O)C2=O` (stereo not drawn), the T/C (dose: 3.75 mg/kg/injection, schedule: Q04DX003 (sc), vehicle: saline with Tween-80) is reported as 45 % of control, the T/C (dose: 7.5 mg/kg/injection, schedule: Q04DX003 (sc), vehicle: saline with Tween-80) is reported as 86 % of control and the T/C (dose: 15.0 mg/kg/injection, schedule: Q04DX003 (sc), vehicle: saline with Tween-80) is reported as 87 % of control. For the same compound, the T/C (dose: 30.0 mg/kg/injection, schedule: Q04DX003 (sc), vehicle: saline with Tween-80) was 62 % of control and 78 % of control.

In the case of `COc1cccc2c1C(=O)c1c(O)c3c(c(O)c1C2=O)CC(O)(/C(C)=N/NC(=O)CCCCC(=O)N/N=C(\C)C1(O)Cc2c(O)c4c(c(O)c2C(OC2CC(N)C(O)C(C)O2)C1)C(=O)c1c(OC)cccc1C4=O)CC3OC1CC(N)C(O)C(C)O1` (stereo not drawn), the T/C (dose: 12.5 mg/kg/injection, schedule: Q04DX003 (sc), vehicle: water) is reported as 28 % of control and the T/C (dose: 100.0 mg/kg/injection, schedule: Q04DX003 (sc), vehicle: water) is reported as 19 % of control.

`OC1CCCC2CCCNC12` (stereo not drawn) was tested, and the T/C [6] was 81 % of control, the T/C [7] was 93 % of control and the T/C [8] was 75 % of control.

`O=P(O)(NCCCl)NCCCl` was tested, and the T/C (dose: 150.0 mg/kg/injection, schedule: Q04DX003 (sc), vehicle: saline) was 33 % of control.

`Cc1cc(NCCN(C(C)C)C(C)C)nc(/N=C(\N)Nc2ccc(Cl)c(C(F)(F)F)c2)n1` was tested, and the T/C (dose: 40.0 mg/kg/injection, schedule: Q04DX003 (sc), vehicle: Klucel (hydroxypropylcellulose) (HPC)) was 45 % of control, the T/C (dose: 80.0 mg/kg/injection, schedule: Q04DX003 (sc), vehicle: Klucel (hydroxypropylcellulose) (HPC)) was 60 % of control and the T/C (dose: 160.0 mg/kg/injection, schedule: Q04DX003 (sc), vehicle: Klucel (hydroxypropylcellulose) (HPC)) was 46 % of control. For the same compound, the T/C (dose: 320.0 mg/kg/injection, schedule: Q04DX003 (sc), vehicle: Klucel (hydroxypropylcellulose) (HPC)) was 62 % of control.

For `Cc1ccc2c(ccc(CC(=S)[S-])[n+]2C)c1`, the T/C (dose: 50.0 mg/kg/injection, schedule: Q01DX010 (sc), vehicle: Klucel (hydroxypropylcellulose) (HPC)) was 56 % of control, the T/C (dose: 100.0 mg/kg/injection, schedule: Q01DX010 (sc), vehicle: Klucel (hydroxypropylcellulose) (HPC)) was 99 % of control and the T/C (dose: 200.0 mg/kg/injection, schedule: Q01DX010 (sc), vehicle: Klucel (hydroxypropylcellulose) (HPC)) was 207 % of control. For the same compound, the T/C (dose: 400.0 mg/kg/injection, schedule: Q01DX010 (sc), vehicle: Klucel (hydroxypropylcellulose) (HPC)) was 72 % of control.

For `O=CC=O`, the T/C (dose: 50.0 mg/kg/injection, schedule: Q01DX010 (sc), vehicle: saline with Tween-80) was 82 % of control and the T/C (dose: 100.0 mg/kg/injection, schedule: Q01DX010 (sc), vehicle: saline with Tween-80) was 61 % of control.

In the case of `CC(=O)OCC1OC(n2ccc(N)nc2=O)C(OC(C)=O)C1OC(C)=O` (stereo not drawn), the T/C (dose: 300.0 mg/kg/injection, schedule: Q04DX003 (sc), vehicle: suspension in saline) is reported as 156 % of control, the T/C (dose: 600.0 mg/kg/injection, schedule: Q04DX003 (sc), vehicle: suspension in saline) is reported as 84 % of control and the T/C (dose: 1200.0 mg/kg/injection, schedule: Q04DX003 (sc), vehicle: suspension in saline) is reported as 23 % of control. The T/C (dose: 2400.0 mg/kg/injection, schedule: Q04DX003 (sc), vehicle: suspension in saline) was 94 % of control.

In the case of `CCc1nc(N)nc(N)c1-c1ccc(Cl)c([N+](=O)[O-])c1`, the T/C (dose: 9.38 mg/kg/injection, schedule: Q04DX003 (sc), vehicle: saline with Tween-80) is reported as 99 % of control, the T/C [5] is reported as 108 % of control and the T/C [6] is reported as 99 % of control. The T/C [7] was 119 % of control.

With `ClCc1ccc2ccccc2n1` the T/C [8] was 158 % of control, the T/C [1] was 105 % of control and the T/C [2] was 77 % of control.

In the case of `NC(=O)c1csc(C2OC(CO)C(O)C2O)n1` (stereo not drawn), the T/C (dose: 200.0 mg/kg/injection, schedule: Q04DX003 (sc), vehicle: water) is reported as 77 % of control, the T/C (dose: 400.0 mg/kg/injection, schedule: Q04DX003 (sc), vehicle: water) is reported as 64 % of control and the T/C (dose: 800.0 mg/kg/injection, schedule: Q04DX003 (sc), vehicle: water) is reported as 99 % of control. The T/C (dose: 1600.0 mg/kg/injection, schedule: Q04DX003 (sc), vehicle: water) was 97 % of control.

`CCC(=O)N(C)[C@@H](C)C(=O)O[C@H]1CC(=O)N(C)c2cc(cc(OC)c2Cl)C/C(C)=C/C=C[C@@H](OC)[C@@]2(O)C[C@H](OC(=O)N2)[C@@H](C)[C@@H]2O[C@@]12C` was tested, and the T/C (dose: 0.13 mg/kg/injection, schedule: Q01DX010 (sc), vehicle: saline + alcohol) was 106 % of control and the T/C (dose: 0.25 mg/kg/injection, schedule: Q01DX010 (sc), vehicle: saline + alcohol) was 31 % of control.

For `Nc1nc2c(ncn2C2OC(CO)C(O)C2O)c(=O)[nH]1` (stereo not drawn), the T/C [1] was 50 % of control, the T/C [2] was 54 % of control and the T/C [3] was 42 % of control. For the same compound, the T/C [4] was 46 % of control.

In the case of `CN(C)CCOc1ccc2c(c1)C/C(=C/c1ncc([N+](=O)[O-])n1C)C2=O`, the T/C [1] is reported as 93 % of control, the T/C [2] is reported as 82 % of control and the T/C [3] is reported as 44 % of control. The T/C [4] was 61 % of control.
